One assay addresses T1, EGFR^T790M (Homo sapiens, UniProt P00533, T790M).
T1 construct: purchased Sigma
Kind of assay: EGFR^T790M kinase inhibitory assay (HTRF). The class given is biochemical. Particulars: ATP 1.65 µM, mean ± S.D of three experiments, read-out: EGFR^790M IC50. Here is the method: (§1) This test used HTRF[44] assay with EGFR^WT and EGFR^T790M (Sigma). For the first 5 minutes, the evaluated compounds were incubated with EGFR^WT and/or EGFR^T790M and their substrates in the enzymatic buffer. […] The assay was performed at 37 °C for 30 minutes. The addition of EDTA-containing detection reagents halted the process. After one hour detection period, GraphPad Prism 5.0 was used to calculate the IC50 values. For each concentration, three separate trials were carried out.
In general terms: In TR-FRET formats the signal depends on donor and acceptor labels being close together.

A further assay relates to EGFR phosphorylation. As to the kind of experiment: Western blotting, EGFR phosphorylation in A549 cells. The class given is cell-based, human. Particulars: A549 cells, 0.1, 0.3 and 1 µM, erlotinib for comparison. As to the method: (§2) At a concentration of 100 nM, the time-dependent degradation activities of compounds 15–21 were also examined (Figure 5(A)).
(§3) Figure 5. (A) EGFR time-dependent degradation by compound 16 in A549 cell lines. Cells were treated with100 nM of 15–21 for indicated time points. Western blotting was used to evaluate EGFR protein, and densitometry was used to measure EGFR degradation, which was adjusted to the density of β-actin protein (n ¼2). (B) Compounds 15 and 16 have EGFR degradation and phosphorylation inhibitory action in A549 cells. The cells were exposed to concentrations of 0.1, 0.3, and 1 µM. Erlotinib were utilised for comparison. […]
(§4) Cells were seeded in 6-well plates at 1 × 10^6 per well, incubated at 37 °C with 5% CO2 for 24 h before drug exposure. […] The results were detected by an enhanced chemiluminescence system (Mill-pore). […]
In general terms: In western blotting, separated proteins are transferred to a membrane and probed.

Another assay has as its system Akt phosphorylation. Kind of assay: Western blotting, Akt phosphorylation in A549 cells. The class given is cell-based, human. The settings on record: A549 cells, 0.1, 0.3 and 1 µM, erlotinib for comparison. Here is the method: as §2, §3, §4
A further assay has as its system A549. As to the kind of experiment: MTT anti-proliferative assay, A549. Particulars: Homo sapiens, A549, read-out: IC50 A549. Background: Formazan colour is commonly taken as a measure of viable cells.
Another assay concerns the target T2, EGFR^WT (Homo sapiens, UniProt P00533).
T2 construct: purchased Sigma
Kind of assay: EGFR^WT kinase inhibitory assay (HTRF). The class given is biochemical. The settings on record: ATP 1.65 µM, mean ± S.D of three experiments. Here is the method:
as §1

Another assay has as its target T3, EGFR (Homo sapiens, UniProt P00533).
T3 construct: EGFR degradation activities of compounds in A549 cells; endogenous in cells; host or cells: A549
Kind of assay: Western blotting, EGFR degradation in A549 cells. The class given is cell-based. As to the method: Following this, the target compounds 15–21 tethering various E3 ligases ligand were chosen as representative PROTACs for further degradation study based on temporal data.
Figure 4. (A) EGFR degradation activities of compounds in A549 cells. Cells were treated for 48 h with concentration of 0.1 and 1 µM. (B) Effects of concentration-dependent EGFR degradation by compounds 15–21 in A549 cell lines. Cells were treated for 48 h with a concentration from 1 nM to 10 µM. EGFR protein was examined by Western blotting analysis and EGFR degradation rate was quantified by densitometry and normalised to the corresponding density of β-actin protein (n ¼ 3). TEXT PRINTED IN THE PICTURE: (B) Comp 15: DC50 = 43.4 nm | (B) Comp 16: DC50= 32.9 nm DOUBTS OF THE COPYIST ABOUT THIS PICTURE: Comp 15, DC50: 43.4 is small blurred print; the 3 could be 8 and the digits are not certain / Comp 16, DC50: 32.9 is small blurred print; the 3 could be 8 and the 9 could be 8 or 0
We set nine concentration gradients ranging from […] to 10 µM to determine the degradation activity of all tested compounds and calculated the DC50 (concentration that caused deletion of 50% of EGFR) values.
as §2
Figure 5. (A) EGFR time-dependent degradation by compound 16 in A549 cell lines. Cells were treated with100 nM of 15–21 for indicated time points. Western blotting was used to evaluate EGFR protein, and densitometry was used to measure EGFR degradation, which was adjusted to the density of β-actin protein (n ¼2). (B) Compounds 15 and 16 have EGFR degradation and phosphorylation inhibitory action in A549 cells. The cells were exposed to concentrations of 0.1, 0.3, and 1 µM. Erlotinib were utilised for comparison. TEXT PRINTED IN THE PICTURE: (A) Comp 15: Dmax = 85 % @ 96 h; Degradation: 9 (4 h; 100 nM); Degradation: 22 (8 h; 100 nM); Degradation: 42 (12 h; 100 nM); Degradation: 83 (24 h; 100 nM); Degradation: 84 (36 h; 100 nM); Degradation: 82 (48 h; 100 nM); Degradation: 82 (72 h; 100 nM); Degradation: 85 (96 h; 100 nM) | (A) Comp 16: Dmax = 96 % @72 h; Degradation: 32 (4 h; 100 nM); Degradation: 43 (8 h; 100 nM); Degradation: 67 (12 h; 100 nM); Degradation: 69 (24 h; 100 nM); Degradation: 78 (36 h; 100 nM); Degradation: 85 (48 h; 100 nM); Degradation: 96 (72 h; 100 nM); Degradation: 94 (96 h; 100 nM) DOUBTS OF THE COPYIST ABOUT THIS PICTURE: Comp 15, Dmax: print is blurred, 85 % @ 96 h is the best reading (85 or 86) / Comp 16, Dmax: print is small and blurred, 96 % @72 h is the best reading (96 or 95; the % sign is unclear) / Comp 15, Degradation row: print is blurred, 83/84/82/82/85 are best readings (3, 5, 8 are hard to tell apart) / Comp 16, Degradation row: print is blurred, 67/69/78/85/96/94 are best readings (5, 6, 8, 9 are hard to tell apart) / The Degradation rows are printed under the blot lanes with no unit. The value 0 under the 0.1 % DMSO control lane was not assigned to any compound.
Cells were seeded in 6-well plates at 1 × 10^6 per well, incubated at 37 °C with 5% CO2 for 24 h before drug exposure. Cells were treated with different concentrations of synthesised compounds for […], then collected and suspended in lysis buffer (Beyotime) and centrifuged for 20 min at 12000 rpm, later removed the insoluble material. […] The results were detected by an enhanced chemiluminescence system (Mill-pore). […]

The next assay deals with MCF-7. Kind of assay: MTT anti-proliferative assay, MCF-7. The settings on record: Homo sapiens, MCF7, read-out: IC50 MCF-7.
For a further assay, the system named is HepG-2. Kind of assay: MTT anti-proliferative assay, HepG-2. The settings on record: Homo sapiens, HepG2, read-out: IC50 HepG-2.
Another assay relates to HCT-116. As to the kind of experiment: MTT anti-proliferative assay, HCT-116. The settings on record: Homo sapiens, HCT-116, read-out: IC50 HCT-116.

The structures appear in SMILES notation. “Also recorded” adds a separate entry of the source.

T2 sequence (P00533 25-1210): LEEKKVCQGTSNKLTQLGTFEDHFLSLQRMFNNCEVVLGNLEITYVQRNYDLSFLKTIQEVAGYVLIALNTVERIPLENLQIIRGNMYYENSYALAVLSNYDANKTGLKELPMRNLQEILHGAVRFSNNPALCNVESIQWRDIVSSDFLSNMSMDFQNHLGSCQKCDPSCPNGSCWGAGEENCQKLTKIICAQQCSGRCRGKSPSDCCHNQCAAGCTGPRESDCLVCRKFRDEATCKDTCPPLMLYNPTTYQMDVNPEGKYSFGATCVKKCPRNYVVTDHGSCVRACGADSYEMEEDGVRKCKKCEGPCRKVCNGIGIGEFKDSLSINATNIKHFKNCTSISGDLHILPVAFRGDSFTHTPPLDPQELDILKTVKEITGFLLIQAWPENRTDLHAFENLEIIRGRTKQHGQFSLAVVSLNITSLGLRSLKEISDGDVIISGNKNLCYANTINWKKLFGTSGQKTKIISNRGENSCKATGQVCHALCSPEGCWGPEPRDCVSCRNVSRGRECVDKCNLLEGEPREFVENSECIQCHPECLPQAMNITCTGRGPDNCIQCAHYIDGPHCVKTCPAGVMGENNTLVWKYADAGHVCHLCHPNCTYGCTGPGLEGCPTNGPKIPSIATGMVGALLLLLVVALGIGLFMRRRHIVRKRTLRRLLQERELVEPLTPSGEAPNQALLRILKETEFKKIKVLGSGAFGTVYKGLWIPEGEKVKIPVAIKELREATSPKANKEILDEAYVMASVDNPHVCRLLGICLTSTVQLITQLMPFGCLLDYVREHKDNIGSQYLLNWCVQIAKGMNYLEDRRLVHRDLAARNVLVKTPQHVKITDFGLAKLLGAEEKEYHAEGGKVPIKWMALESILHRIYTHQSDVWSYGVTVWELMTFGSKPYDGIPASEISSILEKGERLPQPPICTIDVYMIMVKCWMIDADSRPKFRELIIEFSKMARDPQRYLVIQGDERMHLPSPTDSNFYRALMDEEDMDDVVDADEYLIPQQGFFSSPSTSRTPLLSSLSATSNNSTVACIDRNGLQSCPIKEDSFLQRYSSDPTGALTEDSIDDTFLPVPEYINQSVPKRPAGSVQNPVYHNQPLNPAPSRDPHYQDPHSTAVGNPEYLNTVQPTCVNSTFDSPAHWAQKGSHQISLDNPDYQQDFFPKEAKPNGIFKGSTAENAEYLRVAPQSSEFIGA
T1 sequence (P00533 25-1210 T790M): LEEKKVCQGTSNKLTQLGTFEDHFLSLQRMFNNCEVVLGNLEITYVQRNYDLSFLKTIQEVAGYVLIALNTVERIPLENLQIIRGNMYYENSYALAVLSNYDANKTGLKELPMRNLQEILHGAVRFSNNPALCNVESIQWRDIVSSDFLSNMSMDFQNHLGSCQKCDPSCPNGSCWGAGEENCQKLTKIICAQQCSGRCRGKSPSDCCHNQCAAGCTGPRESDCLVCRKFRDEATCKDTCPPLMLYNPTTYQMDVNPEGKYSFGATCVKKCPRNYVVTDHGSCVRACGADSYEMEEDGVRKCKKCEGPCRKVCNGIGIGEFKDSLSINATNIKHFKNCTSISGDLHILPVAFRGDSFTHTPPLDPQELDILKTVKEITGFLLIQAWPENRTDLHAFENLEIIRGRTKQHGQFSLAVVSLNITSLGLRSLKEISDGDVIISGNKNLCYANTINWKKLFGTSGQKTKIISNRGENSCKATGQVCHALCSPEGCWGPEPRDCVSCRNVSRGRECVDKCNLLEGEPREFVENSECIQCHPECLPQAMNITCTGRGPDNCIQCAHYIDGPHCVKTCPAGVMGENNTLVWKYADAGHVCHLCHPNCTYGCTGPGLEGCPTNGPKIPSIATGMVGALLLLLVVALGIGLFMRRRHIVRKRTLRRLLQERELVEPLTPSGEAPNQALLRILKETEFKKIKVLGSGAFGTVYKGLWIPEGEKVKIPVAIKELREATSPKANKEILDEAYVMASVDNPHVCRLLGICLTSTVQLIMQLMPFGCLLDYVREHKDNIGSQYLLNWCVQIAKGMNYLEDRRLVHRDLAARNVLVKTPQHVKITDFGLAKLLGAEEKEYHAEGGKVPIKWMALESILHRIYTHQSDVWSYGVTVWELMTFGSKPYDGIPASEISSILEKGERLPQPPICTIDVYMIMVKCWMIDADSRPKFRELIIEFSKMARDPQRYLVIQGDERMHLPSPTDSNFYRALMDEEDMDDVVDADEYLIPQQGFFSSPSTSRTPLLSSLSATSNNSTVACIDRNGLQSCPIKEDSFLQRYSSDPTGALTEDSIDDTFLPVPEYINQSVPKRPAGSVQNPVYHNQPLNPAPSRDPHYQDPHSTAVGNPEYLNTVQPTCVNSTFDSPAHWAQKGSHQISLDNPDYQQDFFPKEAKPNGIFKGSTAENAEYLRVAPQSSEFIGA
T3 sequence (P00533 25-1210): as the sequence (P00533 25-1210) above
Experimental for HCT-116: (§5) The anti-proliferative activity was quantified in the following way. At a density of 3–8 × 10^3 cells per well, human cancer cell lines were introduced to 96-well plates. The wells were then incubated at 37 °C for 12 hours in 5% CO2 incubator. To determine the DMSO content, the culture media was swapped with 0.1 ml of fresh medium containing graded amounts of the test compounds for each well. Incubation time for the wells was two days. The cells were then cultured in 100 µl MTT solution (5 µg ml^−1) for another 4 hours in each well.
(§6) The absorbance of each well was measured at 490 nm with an automated ELISA reader system (TECAN, CHE) after MTT-formazan crystals were dissolved in 100 µl of DMSO. The IC50 values were calculated using nonlinear regression fitting models (Graph Pad, Prism Version 5). The results were expressed as means ± SD and were based on the average of three separate, duplicate trials.
Experimental for HepG-2: as §5, §6
Experimental for MCF-7: as §5, §6

Regarding `O=C1CCC(N2C(=O)c3cccc(NC(=O)COCCOCCn4nc5[nH]c6ccccc6nc-5c4=O)c3C2=O)C(=O)N1` (centres unmarked) [Compound 15, N-(2-(2,6-dioxopiperidin-3-yl)-1,3-dioxoisoindolin-4-yl)-2-(2-(2-(3-oxo-3,9-dihydro-2H-pyrazolo[3,4-b]quinoxalin-2-yl)ethoxy)ethoxy)acetamide], the IC50 (in general, the concentration needed to halve the response being measured) at EGFR^T790M is 6.89 ± 0.31 µM; in the assay with A549, 3.09 ± 0.15 µM; against EGFR^WT, 0.22 ± 0.05 µM; in the assay on MCF-7, 7.87 ± 0.31 µM; with HepG-2, 3.89 ± 0.05 µM; in the assay with HCT-116, 6.19 ± 0.27 µM. Besides, in the assay on EGFR phosphorylation, the “inhibition of EGFR phosphorylation, in words” value is on record as “effectively displayed inhibitory activity”. Also, in the assay with Akt phosphorylation, the “inhibition of Akt phosphorylation, in words” value is given as “effectively displayed inhibitory activity; also recorded: comparable to erlotinib”. In addition, the Dmax (usually the largest share of the target that was removed) at 0.1 µM at EGFR (A549, A549 cells, 100 nM, time course, reached at 96 h (15) and 72 h (16), read-out: Dmax, maximum EGFR degradation rate) stood at 86%. Further, the DC50 at EGFR (A549 cells, 48 h, Western blotting densitometry, read-out: DC50 (concentration that caused deletion of 50% of EGFR)) turned out to be 0.0434 µM.
`O=C1CCC(N2C(=O)c3cccc(NC(=O)COCCOCCOCCNC(=O)c4nc5ccccc5[nH]c4=O)c3C2=O)C(=O)N1` (centres unmarked) [Compound 17, N-(2-(2-(2-(2-(2-(2,6-dioxopiperidin-3-yl)-1,3-dioxoisoindolin-4-ylamino)-2-oxoethoxy)ethoxy)ethoxy)ethyl)-3-oxo-3,4-dihydroquinoxaline-2-carboxamide]: the IC50 at EGFR^T790M amounted to 6.26 ± 0.32 µM; in the assay with A549 it was 3.19 ± 0.19 µM; against EGFR^WT, 0.19 ± 0.09 µM; in the assay on MCF-7, 7.96 ± 0.35 µM; with HepG-2 it was 4.09 ± 0.11 µM; in the assay on HCT-116, 6.29 ± 0.35 µM.
Take `O=C1CCC(N2C(=O)c3cccc(NC(=O)COCCOCCNNC(=O)c4ccc(N=C5C(=O)Nc6ccccc65)cc4)c3C2=O)C(=O)N1` (centres unmarked) [Compound 18, N-(2-(2,6-dioxopiperidin-3-yl)-1,3-dioxoisoindolin-4-yl)-2-(2-(2-(2-(4-((2-oxoindolin-3-ylidene)amino)benzoyl)hydrazineyl)ethoxy)ethoxy)acetamide]: the IC50 at EGFR^T790M turned out to be 8.16 ± 0.28 µM; in the assay with A549, 4.67 ± 0.13 µM; on EGFR^WT, 0.65 ± 0.03 µM; in the assay on MCF-7 it was 8.26 ± 0.25 µM; with HepG-2, 6.26 ± 0.56 µM; in the assay on HCT-116, 6.79 ± 0.27 µM.
Regarding `CN1C(=O)C(=Nc2ccc(C(=O)NNCCOCCOCC(=O)Nc3cccc4c3C(=O)N(C3CCC(=O)NC3=O)C4=O)cc2)c2ccccc21` (centres unmarked) [Compound 19, N-(2-(2,6-dioxopiperidin-3-yl)-1,3-dioxoisoindolin-4-yl)-2-(2-(2-(2-(4-(1-methyl-2-oxoindolin-3-ylideneamino)benzoyl)hydrazinyl)ethoxy)ethoxy)acetamide], the IC50 on EGFR^T790M worked out at 14.1 ± 0.51 µM; in the assay on A549 it was 6.54 ± 0.32 µM; against EGFR^WT, 3.02 ± 0.12 µM; in the assay on MCF-7 it was 16.3 ± 0.71 µM; in the assay on HepG-2, 8.26 ± 0.36 µM; in the assay on HCT-116, 9.12 ± 0.38 µM.
For the molecule `O=C(CSc1nc2ccccc2o1)NNCCOCCOCC(=O)Nc1cccc2c1C(=O)N(C1CCC(=O)NC1=O)C2=O` (centres unmarked) [Compound 20, 2-(2-(2-(2-(2-(benzo[d]oxazol-2-ylthio)acetyl)hydrazinyl)ethoxy)ethoxy)-N-(2-(2,6-dioxopiperidin-3-yl)-1,3-dioxoisoindolin-4-yl)acetamide], the IC50 stood at 16.3 ± 0.69 µM on EGFR^T790M; 8.27 ± 0.25 µM with A549; 0.77 ± 0.05 µM against EGFR^WT; 14.3 ± 0.69 µM with MCF-7; 9.26 ± 0.39 µM with HepG-2; 12.3 ± 0.71 µM in the assay on HCT-116.
For the molecule `O=C(CSc1nc2ccccc2s1)NNCCOCCOCC(=O)Nc1cccc2c1C(=O)N(C1CCC(=O)NC1=O)C2=O` (centres unmarked) [Compound 21, 2-(2-(2-(2-(2-(benzo[d]thiazol-2-ylthio)acetyl)hydrazinyl)ethoxy)ethoxy)-N-(2-(2,6-dioxopiperidin-3-yl)-1,3-dioxoisoindolin-4-yl)acetamide], the IC50 on EGFR^T790M came out at 15.3 ± 0.61 µM; in the assay with A549 it was 7.27 ± 0.16 µM; against EGFR^WT, 2.27 ± 0.16 µM; with MCF-7, 16.3 ± 0.71 µM; in the assay with HepG-2 it was 9.86 ± 0.37 µM; in the assay on HCT-116, 13 ± 0.52 µM.
As for `COc1cccc2c1C(=O)c1c(O)c3c(c(O)c1C2=O)C[C@@](O)(C(=O)CO)C[C@@H]3O[C@H]1C[C@H](N)[C@H](O)[C@H](C)O1` [Doxorubicin, reference compound], the IC50 in the assay on MCF-7 is 7.89 ± 0.55 µM; in the assay on HepG-2 it was 6.22 ± 0.45 µM; in the assay with HCT-116, 5.52 ± 0.25 µM.
As to `C#Cc1cccc(Nc2ncnc3cc(OCCOC)c(OCCOC)cc23)c1` [Erlotinib, reference compound], the IC50 turned out to be 19.3 ± 1.85 µM in the assay with A549, 21.8 ± 1.85 µM in the assay on MCF-7, 13.1 ± 1.28 µM in the assay on HepG-2 and 16.8 ± 1.65 µM in the assay on HCT-116.

(Values after publication PMC9067978, “Design, synthesis, and molecular docking studies of novel pomalidomide-based PROTACs as potential anti-cancer agents targeting EGFR^WT and EGFR^T790M” (Journal of Enzyme Inhibition and Medicinal Chemistry, 2022).)
